Key:
[1] = system: influx of neutrophils to the lung in LPS-challenged rats; assay: Rat LPS neutrophilia model; format: in vivo; settings: intratracheal, LPS aerosol 100 ug/ml 15 min, lavage 4 hours later, in at least one of the range of conditions tested, significant p<0.05, nonsignificant p>0.05
Method in brief: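 Compound was given intratracheally (200 ul, suspension or dry powder) 15 min–24 hours before a 15 min aerosol of LPS (100 ug/ml). Bronchoalveolar lavage was taken 4 hours after challenge for differential cell counts. Values are % inhibition of neutrophils versus no-compound controls at a given concentration and pretreat time.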

[2] = target: T1, Recombinant human p38α (MKK6-activated) (Homo sapiens, UniProt Q16539); assay: Time-resolved fluorescence resonance energy transfer (TR-FRET) kinase assay (standard or low volume); format: biochemical; parameters: key: Compounds are considered active in this assay if they demonstrate a pIC50 of greater than 4.6 up to about a pIC50 of greater than 10.0; settings: MKK6-activated p38α 100 pM, GST-ATF2 400 nM, 120 minutes at room temperature; either assay format
T1 construct: His; made in house
Method: It is noted that there are two assay formats shown above for the Fluorescence anisotropy kinase binding assay. The only difference between these two assays is the volume used and the plate type. […] The results described herein may have been performed in either assay format and are not differentiated as to which. […] TR-FRET Assay Time-Resolved Fluorescence Resonance Energy Transfer Kinase Standard Assay Recombinant human p38α was expressed as a His-tagged protein. To activate this protein, 3 μM unactivated p38α was incubated in 200 mM Hepes pH 7.4, 625 mM NaCl, 1 mM DTT with 27 nM active MKK6 (Upstate), 1 mM ATP and 10 mM MgCl2 The activity of the MKK6-activated p38α was assessed using a time-resolved fluorescence resonance energy transfer (TR-FRET) assay. Biotinylated-GST-ATF2 (residues 19-96, 400 nM final), ATP ([…]) and MgCl2 (5 mM final) in assay buffer (40 mM HEPES pH 7.4, 1 mM DTT) were added to wells containing 1 ul of various concentrations of compound or DMSO vehicle (3% final) in NUNC 384 well black plate. The reaction was initiated by the addition of MKK6-activated p38 (100 pM final) to give a total volume of 30 ul. The reaction was incubated for 120 minutes at room temperature, then terminated by the addition of 15 μl of 100 mM EDTA pH 7.4. Detection reagent (15 μl) in buffer (100 mM HEPES pH 7.4, 150 mM NaCl, 0.1% w/v BSA, 1 mM DTT) containing antiphosphothreonine-ATF2-71 polyclonal antibody (Cell Signalling Technology, Beverly Mass., USA) labelled with W-1024 europium chelate (Wallac OY, Turku, Finland), and APC-labelled streptavidin (Prozyme, San Leandro, Calif., USA) was added and the reaction was further incubated for 60 minutes at room temperature. The degree of phosphorylation of GST-ATF2 was measured using a Packard Discovery plate reader (Perkin-Elmer Life Sciences, Pangbourne, UK) as a ratio of specific 665 nm energy transfer signal to reference europium 620 nm signal. Time-Resolved Fluorescence Resonance Energy Transfer Kinase Low Volume Assay Recombinant human p38α was expressed as a His-tagged protein. To activate this protein, 3 μM unactivated p38α was incubated in 200 mM Hepes pH7.4, 625 mM NaCl, 1 mM DTT with 27 nM active MKK6 (Upstate), 1 mM ATP and 10 mM MgCl2 The activity of the MKK6-activated p38α was assessed using a time-resolved fluorescence resonance energy transfer (TR-FRET) assay. Biotinylated-GST-ATF2 (residues 19-96, 400 nM final), ATP (125 μM final) and MgCl2 ([…]) in assay buffer (40 mM HEPES pH 7.4, 1 mM DTT) were added to wells containing 0.1 μl of various concentrations of compound or DMSO vehicle (1.7% final) in Greiner low volume 384 well black plate. The reaction was initiated by the addition of MKK6-activated p38α (100 pM final) to give a total volume of 6 μl. The reaction was incubated for 120 minutes at room temperature, then terminated by the addition of 3 μl of detection reagent in buffer (100 mM HEPES pH 7.4, 150 mM NaCl, 0.1% w/v BSA, 1 mM DTT, 100 mM EDTA) containing antiphosphothreonine-ATF2-71 polyclonal antibody (Cell Signalling Technology, Beverly Mass., USA) labelled with W-1024 europium chelate (Wallac OY, Turku, Finland), and APC-labelled streptavidin (Prozyme, San Leandro, Calif., USA). The reaction was further incubated for 60 minutes at room temperature. The degree of phosphorylation of GST-ATF2 was measured using a BMG Rubystar plate reader (BMG, UK) as a ratio of specific 665 nm energy transfer signal to reference europium 620 nm signal. It is noted that there are two assay formats shown above for the Time-resolved fluorescence resonance energy transfer kinase assay. The only difference between these two assays is the volume used and the plate type. […] The results described herein may have been performed in either assay format and are not differentiated as to which. […] For purposes herein the HTRF assay and the Fluorescence anisotropy kinase binding assay: […]

T1 sequence (Q16539 whole entry): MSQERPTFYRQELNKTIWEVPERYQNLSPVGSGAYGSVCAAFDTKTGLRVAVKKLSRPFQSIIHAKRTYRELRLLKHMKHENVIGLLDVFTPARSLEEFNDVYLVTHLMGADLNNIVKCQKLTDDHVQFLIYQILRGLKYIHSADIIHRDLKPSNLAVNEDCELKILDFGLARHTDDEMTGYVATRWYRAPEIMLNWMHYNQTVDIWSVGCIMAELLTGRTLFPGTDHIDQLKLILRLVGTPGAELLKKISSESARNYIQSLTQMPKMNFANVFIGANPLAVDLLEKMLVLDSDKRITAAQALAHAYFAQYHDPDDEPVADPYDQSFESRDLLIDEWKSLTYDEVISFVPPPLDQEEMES

Question: For Cc1ccc(C(=O)Nc2nccs2)cc1-c1nc(NCc2ncc[nH]2)nc2c1ccc(=O)n2-c1c(F)cccc1F [79(c), 3-{8-(2,6-difluorophenyl)-2-[(1H-imidazol-2-ylmethyl)amino]-7-oxo-7,8-dihydropyrido[2,3-d]pyrimidin-4-yl}-4-methyl-N-1,3-thiazol-2-ylbenzamide], which “inhibition of neutrophilia (neutrophil levels in lung lavage relative to no compound controls)” value [1] is on record?
Answer: Its value is “statistically significant inhibition”.

Question: What about the “pIC50, reported as active” value [2] of the same compound?
Answer: Its value is “active”.

Question: Which results are given for CNC1CCN(c2nc(-c3cc(C(=O)NC(C)C)ccc3C)c3ccc(=O)n(-c4c(F)cccc4F)c3n2)CC1 [113(b), 3-{8-(2,6-difluorophenyl)-2-[4-(methylamino)-1-piperidinyl]-7-oxo-7,8-dihydropyrido[2,3-d]pyrimidin-4-yl}-4-methyl-N-(1-methylethyl)benzamide]?
Answer: inhibition of neutrophilia (neutrophil levels in lung lavage relative to no compound controls) [1]: statistically nonsignificant inhibition; pIC50, reported as active [2]: active

Question: For Cc1ccc(C(=O)NC(C)C)cc1-c1nc(N2CCC(N3CCC(C)CC3)CC2)nc2c1ccc(=O)n2-c1c(F)cccc1F [163(c), 3-[8-(2,6-difluorophenyl)-2-(4-methyl-1,4′-bipiperidin-1′-yl)-7-oxo-7,8-dihydropyrido[2,3-d]pyrimidin-4-yl]-4-methyl-N-(1-methylethyl)benzamide], which “inhibition of neutrophilia (neutrophil levels in lung lavage relative to no compound controls)” value [1] is on record?
Answer: Its value is “statistically nonsignificant inhibition”.

Question: What about the “pIC50, reported as active” value [2] of the same compound?
Answer: The value was “active”.

Question: For Cc1ccc(C(=O)NC(C)C)cc1-c1nc(N(C)CCCN(C)C)nc2c1ccc(=O)n2-c1c(F)cccc1F [Example 34, 3-{8-(2,6-difluorophenyl)-2-[[3-(dimethylamino)propyl](methyl)amino]-7-oxo-7,8-dihydropyrido[2,3-d]pyrimidin-4-yl}-4-methyl-N-(1-methylethyl)benzamide], which “inhibition of neutrophilia (neutrophil levels in lung lavage relative to no compound controls)” value [1] is on record?
Answer: The value was “statistically significant inhibition”.

Question: What about the “pIC50, reported as active” value [2] of the same compound?
Answer: Its value is “active”.

Question: Which results are given for CNCCNc1nc(-c2cc(C(=O)NC(C)C)ccc2C)c2ccc(=O)n(-c3c(F)cccc3F)c2n1 [Example 57, 3-(8-(2,6-difluorophenyl)-2-{[2-(methylamino)ethyl]amino}-7-oxo-7,8-dihydropyrido[2,3-d]pyrimidin-4-yl)-4-methyl-N-(1-methylethyl)benzamide]?
Answer: inhibition of neutrophilia (neutrophil levels in lung lavage relative to no compound controls) [1]: statistically significant inhibition; pIC50, reported as active [2]: active

Question: Which “inhibition of neutrophilia (neutrophil levels in lung lavage relative to no compound controls)” value [1] does the source give for Cc1ccc(C(=O)Nc2ccc(F)cc2)cc1-c1nc(NC2CC(C)(C)NC(C)(C)C2)nc2c1ccc(=O)n2-c1c(F)cccc1F [Example 66, 3-{8-(2,6-difluorophenyl)-7-oxo-2-[(2,2,6,6-tetramethyl-4-piperidinyl)amino]-7,8-dihydropyrido[2,3-d]pyrimidin-4-yl}-N-(4-fluorophenyl)-4-methylbenzamide] here?
Answer: The value was “statistically significant inhibition”.

Question: What about the “pIC50, reported as active” value [2] of the same compound?
Answer: The value was “active”.

Question: Which results are given for Cc1ccc(C(=O)Nc2ccc(F)cc2)cc1-c1nc(NCc2ncc[nH]2)nc2c1ccc(=O)n2-c1c(F)cccc1F [Example 78]?
Answer: inhibition of neutrophilia (neutrophil levels in lung lavage relative to no compound controls) [1]: statistically significant inhibition; pIC50, reported as active [2]: active

Question: Which results are given for Cc1ccc(C(=O)Nc2nccs2)cc1-c1nc(NCCN(C)C)nc2c1ccc(=O)n2-c1c(F)cccc1F [Example 109, 3-(8-(2,6-difluorophenyl)-2-{[2-(dimethylamino)ethyl]amino}-7-oxo-7,8-dihydropyrido[2,3-d]pyrimidin-4-yl)-4-methyl-N-1,3-thiazol-2-ylbenzamide]?
Answer: inhibition of neutrophilia (neutrophil levels in lung lavage relative to no compound controls) [1]: statistically significant inhibition; pIC50, reported as active [2]: active

Question: Which results are given for Cc1ccc(C(=O)Nc2ccc(F)cc2)cc1-c1nc(NCCN(C)C)nc2c1ccc(=O)n2-c1c(F)cccc1F [Example 112, 3-(8-(2,6-difluorophenyl)-2-{[2-(dimethylamino)ethyl]amino}-7-oxo-7,8-dihydropyrido[2,3-d]pyrimidin-4-yl)-N-(4-fluorophenyl)-4-methylbenzamide]?
Answer: inhibition of neutrophilia (neutrophil levels in lung lavage relative to no compound controls) [1]: statistically nonsignificant inhibition; pIC50, reported as active [2]: active

From patent US8207176B2 (Glaxo Group Limited, priority 2005, dated 2012)
